Consider two compounds from ChEMBL document CHEMBL5291721, “A preclinical secondary pharmacology resource illuminates target-adverse drug reaction associations of marketed drugs” (Nat Commun, 2023).

The target of assay [1] is T1, Prostaglandin G/H synthase 1 (Rattus norvegicus, UniProt Q63921).
T1 sequence (Q63921 whole entry): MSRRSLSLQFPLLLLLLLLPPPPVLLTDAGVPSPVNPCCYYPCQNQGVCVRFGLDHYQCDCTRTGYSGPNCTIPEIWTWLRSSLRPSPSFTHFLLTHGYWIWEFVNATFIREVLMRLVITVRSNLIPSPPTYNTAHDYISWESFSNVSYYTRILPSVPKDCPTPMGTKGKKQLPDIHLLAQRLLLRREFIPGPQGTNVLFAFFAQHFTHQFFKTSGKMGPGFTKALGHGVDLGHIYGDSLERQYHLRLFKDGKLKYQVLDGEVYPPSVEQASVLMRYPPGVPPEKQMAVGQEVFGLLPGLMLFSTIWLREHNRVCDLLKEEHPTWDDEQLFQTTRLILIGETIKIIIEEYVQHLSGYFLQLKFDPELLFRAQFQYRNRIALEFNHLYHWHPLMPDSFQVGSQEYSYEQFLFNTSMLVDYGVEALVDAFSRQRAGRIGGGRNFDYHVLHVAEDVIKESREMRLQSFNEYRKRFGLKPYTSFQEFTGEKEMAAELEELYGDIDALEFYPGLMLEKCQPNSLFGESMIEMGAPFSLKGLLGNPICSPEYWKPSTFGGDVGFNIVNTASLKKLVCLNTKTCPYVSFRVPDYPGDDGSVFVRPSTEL
It counts as functional.

Assay [2] deals with D(3) dopamine receptor (Homo sapiens, UniProt P35462).
Sequence of D(3) dopamine receptor (P35462 whole entry): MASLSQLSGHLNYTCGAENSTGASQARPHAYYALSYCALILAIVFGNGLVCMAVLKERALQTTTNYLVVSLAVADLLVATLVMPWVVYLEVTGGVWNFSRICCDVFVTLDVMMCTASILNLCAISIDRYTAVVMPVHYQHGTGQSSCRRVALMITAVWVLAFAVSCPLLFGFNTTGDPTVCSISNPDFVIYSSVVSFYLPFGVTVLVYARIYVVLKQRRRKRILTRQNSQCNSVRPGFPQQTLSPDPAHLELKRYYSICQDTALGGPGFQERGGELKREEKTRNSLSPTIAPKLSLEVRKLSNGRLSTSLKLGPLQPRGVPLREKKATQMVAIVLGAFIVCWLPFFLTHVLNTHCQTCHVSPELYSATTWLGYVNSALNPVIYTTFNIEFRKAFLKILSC
Assay [3] addresses cGMP-inhibited 3',5'-cyclic phosphodiesterase 3A (Homo sapiens, UniProt Q14432). Type of assay: functional.
In assay [4] the target is Histamine H3 receptor (Homo sapiens, UniProt Q9Y5N1).
Sequence of Histamine H3 receptor (Q9Y5N1 whole entry): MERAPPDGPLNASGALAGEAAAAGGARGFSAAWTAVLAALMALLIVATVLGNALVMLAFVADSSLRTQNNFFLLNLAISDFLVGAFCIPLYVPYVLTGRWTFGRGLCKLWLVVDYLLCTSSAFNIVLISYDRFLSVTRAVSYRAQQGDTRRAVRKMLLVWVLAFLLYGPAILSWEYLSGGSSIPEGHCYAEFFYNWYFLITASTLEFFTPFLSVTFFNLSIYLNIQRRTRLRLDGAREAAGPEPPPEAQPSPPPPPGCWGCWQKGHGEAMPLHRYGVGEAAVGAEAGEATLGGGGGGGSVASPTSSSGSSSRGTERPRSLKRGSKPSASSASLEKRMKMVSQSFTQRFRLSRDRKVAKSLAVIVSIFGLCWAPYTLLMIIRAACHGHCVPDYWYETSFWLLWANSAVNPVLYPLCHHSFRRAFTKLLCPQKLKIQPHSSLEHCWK
The target in assay [5] is Mu-type opioid receptor (Homo sapiens, UniProt P35372).
Sequence of Mu-type opioid receptor (P35372 whole entry): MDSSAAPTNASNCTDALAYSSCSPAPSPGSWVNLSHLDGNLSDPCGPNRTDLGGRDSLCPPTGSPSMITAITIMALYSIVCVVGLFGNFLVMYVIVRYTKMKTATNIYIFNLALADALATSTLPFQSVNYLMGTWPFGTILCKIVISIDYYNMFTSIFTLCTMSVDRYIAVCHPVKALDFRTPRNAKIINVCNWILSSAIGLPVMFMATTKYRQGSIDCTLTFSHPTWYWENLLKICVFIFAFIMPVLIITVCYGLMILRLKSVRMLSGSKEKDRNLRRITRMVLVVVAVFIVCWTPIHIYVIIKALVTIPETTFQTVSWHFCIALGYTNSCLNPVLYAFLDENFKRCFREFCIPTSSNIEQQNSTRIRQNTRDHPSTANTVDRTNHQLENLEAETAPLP
Assay [6] addresses Gamma-aminobutyric acid receptor subunit alpha-1/alpha-2/beta-2/gamma-2 (Homo sapiens, UniProt P14867+P18507+P47869+P47870). It counts as protein-complex assay.
For assay [7], the target named is T2, 5-hydroxytryptamine receptor 1A (Homo sapiens, UniProt P08908).
T2 sequence (P08908 whole entry): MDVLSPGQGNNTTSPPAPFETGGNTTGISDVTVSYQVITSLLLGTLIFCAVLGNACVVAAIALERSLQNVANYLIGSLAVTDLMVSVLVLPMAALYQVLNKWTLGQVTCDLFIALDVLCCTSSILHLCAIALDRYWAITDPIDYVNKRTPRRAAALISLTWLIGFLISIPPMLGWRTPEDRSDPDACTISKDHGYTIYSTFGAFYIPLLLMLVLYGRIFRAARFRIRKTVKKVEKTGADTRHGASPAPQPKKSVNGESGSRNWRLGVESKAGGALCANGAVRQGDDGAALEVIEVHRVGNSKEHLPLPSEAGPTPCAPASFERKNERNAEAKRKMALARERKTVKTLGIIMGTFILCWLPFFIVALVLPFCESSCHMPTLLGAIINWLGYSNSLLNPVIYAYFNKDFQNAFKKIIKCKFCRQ

Assay [8] addresses T3, Muscarinic acetylcholine receptor M2 (Homo sapiens, UniProt P08172).
T3 sequence (P08172 whole entry): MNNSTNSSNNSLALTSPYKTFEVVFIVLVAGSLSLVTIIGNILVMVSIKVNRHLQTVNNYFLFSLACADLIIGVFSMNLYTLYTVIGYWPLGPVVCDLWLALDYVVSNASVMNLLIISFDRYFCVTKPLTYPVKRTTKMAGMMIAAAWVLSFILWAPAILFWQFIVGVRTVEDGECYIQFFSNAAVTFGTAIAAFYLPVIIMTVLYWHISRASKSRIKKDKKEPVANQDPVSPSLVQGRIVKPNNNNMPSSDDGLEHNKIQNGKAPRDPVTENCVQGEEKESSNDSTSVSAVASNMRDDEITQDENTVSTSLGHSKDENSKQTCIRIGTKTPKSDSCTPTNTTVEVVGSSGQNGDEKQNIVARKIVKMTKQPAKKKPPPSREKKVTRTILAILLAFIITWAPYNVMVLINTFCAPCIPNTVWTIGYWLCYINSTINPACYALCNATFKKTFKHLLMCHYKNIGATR

The target of assay [9] is T4, Prostaglandin G/H synthase 1 (Homo sapiens, UniProt P23219). It counts as functional.
T4 sequence (P23219 whole entry): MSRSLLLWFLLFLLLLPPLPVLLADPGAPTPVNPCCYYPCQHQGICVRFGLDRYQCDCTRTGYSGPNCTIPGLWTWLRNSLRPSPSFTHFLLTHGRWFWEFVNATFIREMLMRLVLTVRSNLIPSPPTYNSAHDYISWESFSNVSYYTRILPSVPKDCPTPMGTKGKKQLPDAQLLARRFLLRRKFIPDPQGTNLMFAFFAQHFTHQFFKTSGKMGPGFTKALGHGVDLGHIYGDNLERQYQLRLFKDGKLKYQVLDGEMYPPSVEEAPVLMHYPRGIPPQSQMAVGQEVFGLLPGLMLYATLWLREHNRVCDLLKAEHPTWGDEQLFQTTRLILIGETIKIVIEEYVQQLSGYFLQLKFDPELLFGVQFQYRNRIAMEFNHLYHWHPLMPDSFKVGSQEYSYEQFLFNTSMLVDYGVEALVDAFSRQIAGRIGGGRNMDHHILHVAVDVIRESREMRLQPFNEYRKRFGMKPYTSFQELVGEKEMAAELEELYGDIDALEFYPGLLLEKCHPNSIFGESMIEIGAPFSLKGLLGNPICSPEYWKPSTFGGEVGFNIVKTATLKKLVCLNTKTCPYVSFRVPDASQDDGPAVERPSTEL
For assay [10], the target named is Sodium-dependent dopamine transporter (Homo sapiens, UniProt Q01959).
Assay [11] concerns the target T5, Progesterone receptor (Homo sapiens, UniProt P06401).
T5 sequence (P06401 whole entry): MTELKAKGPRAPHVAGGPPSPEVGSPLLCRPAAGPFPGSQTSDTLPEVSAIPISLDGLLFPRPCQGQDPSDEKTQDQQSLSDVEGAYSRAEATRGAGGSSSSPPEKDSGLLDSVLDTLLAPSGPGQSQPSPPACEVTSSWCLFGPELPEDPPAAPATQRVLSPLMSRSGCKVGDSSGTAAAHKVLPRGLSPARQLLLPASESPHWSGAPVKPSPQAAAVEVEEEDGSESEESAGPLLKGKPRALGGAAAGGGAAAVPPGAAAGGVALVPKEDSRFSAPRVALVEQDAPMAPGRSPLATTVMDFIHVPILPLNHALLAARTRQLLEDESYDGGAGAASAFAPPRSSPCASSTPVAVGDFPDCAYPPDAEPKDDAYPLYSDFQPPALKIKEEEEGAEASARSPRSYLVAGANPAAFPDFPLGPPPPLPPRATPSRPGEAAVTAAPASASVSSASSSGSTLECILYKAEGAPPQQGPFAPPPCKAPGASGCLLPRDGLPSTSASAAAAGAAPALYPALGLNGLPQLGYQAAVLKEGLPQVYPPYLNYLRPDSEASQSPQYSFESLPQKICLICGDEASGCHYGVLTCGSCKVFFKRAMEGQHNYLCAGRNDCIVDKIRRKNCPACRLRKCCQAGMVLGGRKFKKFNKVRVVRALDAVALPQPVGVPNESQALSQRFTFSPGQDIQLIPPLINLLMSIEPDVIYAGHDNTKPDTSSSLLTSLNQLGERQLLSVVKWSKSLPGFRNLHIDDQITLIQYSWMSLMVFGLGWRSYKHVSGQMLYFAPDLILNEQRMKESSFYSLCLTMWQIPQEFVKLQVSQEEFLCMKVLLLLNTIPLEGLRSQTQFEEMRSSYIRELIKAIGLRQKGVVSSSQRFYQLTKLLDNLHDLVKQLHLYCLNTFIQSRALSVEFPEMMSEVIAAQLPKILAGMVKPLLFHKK

Assay [12] has as its target T4, Prostaglandin G/H synthase 1. It counts as functional. The source holds these as a separate data set.
The target of assay [13] is 5-hydroxytryptamine receptor 2B (Homo sapiens, UniProt P41595). Type of assay: functional, cell-based.

The structures appear in SMILES notation.
Also: assay procedure not described here.

Sequence of cGMP-inhibited 3',5'-cyclic phosphodiesterase 3A (Q14432 whole entry): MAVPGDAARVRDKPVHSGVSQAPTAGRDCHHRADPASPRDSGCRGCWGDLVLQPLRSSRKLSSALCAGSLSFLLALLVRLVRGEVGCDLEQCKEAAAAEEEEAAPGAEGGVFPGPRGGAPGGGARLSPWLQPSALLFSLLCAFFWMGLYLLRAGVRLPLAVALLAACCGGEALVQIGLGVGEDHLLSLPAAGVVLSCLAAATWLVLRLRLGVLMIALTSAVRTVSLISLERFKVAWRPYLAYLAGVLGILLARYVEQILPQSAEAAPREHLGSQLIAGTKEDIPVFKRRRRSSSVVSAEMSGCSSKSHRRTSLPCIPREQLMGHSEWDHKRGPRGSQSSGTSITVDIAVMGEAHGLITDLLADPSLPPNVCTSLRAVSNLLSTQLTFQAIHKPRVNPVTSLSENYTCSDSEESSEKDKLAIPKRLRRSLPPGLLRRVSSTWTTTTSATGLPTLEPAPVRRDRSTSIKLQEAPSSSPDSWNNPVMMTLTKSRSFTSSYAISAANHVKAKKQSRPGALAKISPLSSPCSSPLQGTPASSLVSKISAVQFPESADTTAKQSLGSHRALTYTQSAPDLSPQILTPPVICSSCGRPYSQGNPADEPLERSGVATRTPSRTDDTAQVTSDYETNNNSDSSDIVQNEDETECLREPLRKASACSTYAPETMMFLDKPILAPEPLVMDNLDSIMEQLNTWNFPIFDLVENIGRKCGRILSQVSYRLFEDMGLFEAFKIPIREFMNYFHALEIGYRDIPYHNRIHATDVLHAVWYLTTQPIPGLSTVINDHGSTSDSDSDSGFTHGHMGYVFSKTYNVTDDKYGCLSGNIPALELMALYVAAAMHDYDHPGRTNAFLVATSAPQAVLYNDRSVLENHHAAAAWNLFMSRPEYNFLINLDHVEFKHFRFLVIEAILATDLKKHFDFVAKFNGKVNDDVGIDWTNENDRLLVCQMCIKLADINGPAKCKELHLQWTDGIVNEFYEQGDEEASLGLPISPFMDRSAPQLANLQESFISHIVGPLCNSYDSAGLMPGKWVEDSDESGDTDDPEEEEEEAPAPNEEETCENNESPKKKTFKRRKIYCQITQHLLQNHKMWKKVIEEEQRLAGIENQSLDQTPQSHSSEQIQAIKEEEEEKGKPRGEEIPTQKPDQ
Sequence of Gamma-aminobutyric acid receptor subunit alpha-1/alpha-2/beta-2/gamma-2 (P14867 whole entry): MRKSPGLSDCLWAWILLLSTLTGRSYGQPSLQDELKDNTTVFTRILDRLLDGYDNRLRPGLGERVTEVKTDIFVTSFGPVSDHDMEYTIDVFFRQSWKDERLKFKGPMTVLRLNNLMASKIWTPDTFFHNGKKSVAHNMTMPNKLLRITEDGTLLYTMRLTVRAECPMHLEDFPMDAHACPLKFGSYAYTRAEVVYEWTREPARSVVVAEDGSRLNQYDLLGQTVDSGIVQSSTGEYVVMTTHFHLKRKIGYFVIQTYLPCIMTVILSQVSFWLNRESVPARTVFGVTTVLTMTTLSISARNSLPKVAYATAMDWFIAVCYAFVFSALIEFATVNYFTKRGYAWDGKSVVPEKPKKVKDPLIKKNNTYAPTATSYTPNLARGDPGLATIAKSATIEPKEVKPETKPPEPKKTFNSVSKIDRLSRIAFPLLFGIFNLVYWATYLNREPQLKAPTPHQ
Sequence of Gamma-aminobutyric acid receptor subunit alpha-1/alpha-2/beta-2/gamma-2 (P47870 whole entry): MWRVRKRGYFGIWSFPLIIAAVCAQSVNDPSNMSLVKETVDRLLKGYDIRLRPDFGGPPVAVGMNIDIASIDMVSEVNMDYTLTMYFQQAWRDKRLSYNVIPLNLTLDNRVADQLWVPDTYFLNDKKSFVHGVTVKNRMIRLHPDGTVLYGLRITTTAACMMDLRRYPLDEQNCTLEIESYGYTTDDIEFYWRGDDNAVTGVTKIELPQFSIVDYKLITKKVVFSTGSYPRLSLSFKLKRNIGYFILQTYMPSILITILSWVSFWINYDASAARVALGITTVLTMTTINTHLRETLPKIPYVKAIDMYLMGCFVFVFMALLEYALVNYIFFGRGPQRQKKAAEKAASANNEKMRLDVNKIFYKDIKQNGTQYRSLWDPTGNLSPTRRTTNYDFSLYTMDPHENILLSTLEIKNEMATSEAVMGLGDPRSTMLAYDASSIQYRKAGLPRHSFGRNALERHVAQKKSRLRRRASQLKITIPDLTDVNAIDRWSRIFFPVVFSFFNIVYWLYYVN
Sequence of Gamma-aminobutyric acid receptor subunit alpha-1/alpha-2/beta-2/gamma-2 (P18507 whole entry): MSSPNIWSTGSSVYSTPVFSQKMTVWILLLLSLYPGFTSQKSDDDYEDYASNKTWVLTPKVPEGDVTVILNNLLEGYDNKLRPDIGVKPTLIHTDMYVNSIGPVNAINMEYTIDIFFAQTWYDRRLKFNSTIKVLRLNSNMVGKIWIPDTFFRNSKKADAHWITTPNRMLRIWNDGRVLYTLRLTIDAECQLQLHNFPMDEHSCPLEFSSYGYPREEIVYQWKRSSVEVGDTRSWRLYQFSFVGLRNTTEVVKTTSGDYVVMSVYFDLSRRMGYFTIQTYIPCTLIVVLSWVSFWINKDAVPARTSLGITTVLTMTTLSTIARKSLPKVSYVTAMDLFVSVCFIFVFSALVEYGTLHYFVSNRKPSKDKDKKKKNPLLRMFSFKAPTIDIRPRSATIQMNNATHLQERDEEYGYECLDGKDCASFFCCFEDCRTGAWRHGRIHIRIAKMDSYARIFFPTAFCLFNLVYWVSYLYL
Sequence of Gamma-aminobutyric acid receptor subunit alpha-1/alpha-2/beta-2/gamma-2 (P47869 whole entry): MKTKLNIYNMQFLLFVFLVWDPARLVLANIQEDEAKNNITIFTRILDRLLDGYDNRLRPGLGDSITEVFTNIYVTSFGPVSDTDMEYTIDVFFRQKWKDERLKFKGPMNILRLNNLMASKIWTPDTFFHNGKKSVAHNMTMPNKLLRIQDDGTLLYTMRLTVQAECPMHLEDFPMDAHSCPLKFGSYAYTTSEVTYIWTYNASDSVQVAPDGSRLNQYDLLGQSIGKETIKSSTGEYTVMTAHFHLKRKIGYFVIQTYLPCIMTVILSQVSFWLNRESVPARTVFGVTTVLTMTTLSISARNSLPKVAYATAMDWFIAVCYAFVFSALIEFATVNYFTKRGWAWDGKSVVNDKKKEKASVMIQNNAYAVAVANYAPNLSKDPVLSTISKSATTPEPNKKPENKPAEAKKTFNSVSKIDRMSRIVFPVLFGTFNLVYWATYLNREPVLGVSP

With `CCOC(=O)c1ncn2c1CN(C)C(=O)c1cc(F)ccc1-2` [FLUMAZENIL], the AC50 in [1] was > 30 µM.

As to `CCN(CC)CCCC(C)Nc1c2ccc(Cl)cc2nc2ccc(OC)cc12` (stereo not drawn) [QUINACRINE], the half-maximal activity concentration (AC50) was 7.05 µM in assay [2]; > 30 µM in assay [3]; 0.693 µM in assay [4]; 5.86 µM in assay [5]; > 30 µM in [6]; 2.26 µM in assay [7]. Further, the half-maximal activity concentration (AC50) in [8] is 0.768 µM; in assay [9], > 30 µM; in assay [10], 18.4 µM; in [11] it was > 10 µM; in assay [12], > 30 µM; in [13] it was > 30 µM.
